The text below walks through data of patent publication US11361527B2, “Automated robotic microscopy systems” (The J. David Gladstone Institutes, a testamentary trust …, priority 2012, dated 2022).

Molecules are shown by their SMILES.

The experiment has as its system primary neurons transfected with TDP43 M337V. Put plainly: Automated neurite quantification in primary neurons transfected with TDP43 M337V (ALS disease model), robotic microscope. The following applies: fluphenazine 0.1 μM vs vehicle, images every 24 hours, FIG. 24. In kind it is cell-based. On the procedure:
Primary neurons were transfected with GFP as a control or TDP43 M337V. The disease model neurons were treated with fluphenazine (0.1 μM) or vehicle to determine whether autophagy could rescue TDP43 M337V mediated loss of neurites. Images were collected every 24 hours with the robotic microscope and neurites were quantified using automated analysis as described herein.
Further, counting the number of neurites in neuronal cultures can be an early and sensitive measure of cell health. Neurite retraction often precedes neuron death when cells are coping with neurodegenerative disease causing proteins. One way to detect neurites with low computational complexity is to quantify the total area of neurites in an image. A line detector may be used to identify pixels in an image that have local structures that represent a line. The determination is based on the second order pixel data (Hessian matrix), which is a measure of local intensity curvature. In certain aspects, such an approach uses the following parameters:
The output of the line detector is a binary image with pixels that are part of lines having a value of 1 and all other pixels having a value of 0. The pixels of this binary image are then summed to quantify the total area of neurites. […] Images were collected every 24 hours with the robotic microscope and neurites were quantified using automated analysis as described above.

As to `OCCN1CCN(CCCN2c3ccccc3Sc3ccc(C(F)(F)F)cc32)CC1` [fluphenazine], the “neurite degeneration induced by TDP43 M337V (loss of neurites, automated neurite quantification)” value was “mitigates neurite degeneration”.
